{"source": "paper PMC6627374", "about": "“Effects of the Pentapeptide P33 on Memory and Synaptic Plasticity in APP/PS1 Transgenic Mice: A Novel Mechanism Presenting the Protein Fe65 as a Target” (International Journal of Molecular Sciences, 2019)", "key": {"human Aβ1–42": {"tested_on": "human Aβ1–42", "assay": "ELISA, soluble Aβ1–42 in HC and CTX", "type": "in vivo, human Aβ1–42 in APP/PS1 transgenic mice", "conditions": "APP/PS1 mice; 5 mg∙kg^−1 i.p., six months", "procedure": "(§1) For this study, three-month-old male and female WT and APP/PS1 mice (n = 37) were used. Four groups were defined: WT-vehicle (physiological saline) (male n = 4; female n = 6), WT-P33 (male n = 6; female n = 5), APP/PS1-vehicle (male n = 3; female n = 5), and APP/PS1-P33 (male n = 6; female n = 2). Animals were subjected to intraperitoneal (i.p.) injections of P33 (5 mg∙kg^−1) for five days per week, over a course of six months. The mice were kept in groups under constant temperature (23 ± 0.5 °C), lighting (12-h/12-h light/dark cycle, lights on at 7:00 a.m.), and humidity (~50%). Standard mouse chow and tap water were supplied ad libitum. All behavioral experiments were performed in the light period. Handling was done daily at the same time.\nNine-month-old mice (three animals per group) were euthanized via cervical dislocation. […] To quantify the level of Aβ in the mice, we used a sandwich ELISA Kit (Innotest Amyloid-[…]) from Innogenetics (Gent, Belgium), following the instructions of the manufacturer. The absorbance values were measured at 450 nm on a 96-well plate reader (NOVOstar OPTIMA, BMG Labtech, Offenburg, Germany).\nThe results of spine density and immunohistochemistry experiments were calculated with one-way ANOVA followed by Fisher’s LSD post hoc tests. […] Data were analyzed with SPSS (IBM SPSS Statistics 24), and were expressed as the mean ± standard error of the mean (SEM). […]"}, "GFAP-positive astrocytes": {"tested_on": "GFAP-positive astrocytes", "assay": "GFAP immunohistochemistry, astrocyte density", "type": "in vivo, mouse", "conditions": "APP/PS1-vehicle vs. WT-vehicle, WT-P33, APP/PS1-P33; whole HC and CTX; 5 mg∙kg^−1 i.p., six months", "procedure": "as §1\nMice (five animals per group) were anaesthetized with chloral-hydrate (1 mg∙kg^−1) and perfused transcardially with PBS, followed by ice-cold 4% paraformaldehyde. The brains were removed, post-fixed in the same fixative, and immersed in a 30% sucrose solution containing 0.01% sodium-azide. […]\nSlides were scanned by a digital slide scanner (Mirax Midi, 3DHistech Ltd., Budapest, Hungary), equipped with a Pannoramic Viewer 1.15.4, CaseViewer 2.1 program and a QuantCenter, HistoQuant module (3DHistech Ltd., Budapest, Hungary). For quantification, all of the sections were analyzed. […] Antibody-positive cell types from the ROIs were counted and quantified. […]"}}, "note": "Where a SMILES comes first, the peptide text is derived from it.", "data": [{"compound": "C[C@@H](N)C(=O)N1CCC[C@@H]1C(=O)N[C@H](C)C(=O)N1CCC[C@@H]1C(=O)N[C@H](CCC(=O)O)C(N)=O", "note": "[P33] (HELM PEPTIDE1{[dA].[dP].[dA].[dP].[dE].[am]}$$$$V2.0)", "values": [{"measurement": "soluble Aβ1–42, effect of P33 (in words)", "setting": "human Aβ1–42", "value": "decreased level of Aβ1–42 in the APP/PS1 mice"}, {"measurement": "density of hyperreactive (GFAP-positive) astrocytes (in words)", "setting": "GFAP-positive astrocytes", "value": "higher in the whole HC and CTX of the APP/PS1-vehicle group, than in the other three groups"}]}]}
